These are literature values, as cited in patent US5229007A (priority 1992, dated 1993).

One data set deals with insect. To be noted: in vivo.

Take `C/C=C(\C)C(=O)O[C@H]1C[C@@H](OC(C)=O)[C@@]2(C(=O)OC)CO[C@H]3[C@@H](O)[C@@](C)([C@]45O[C@@]4(C)[C@H]4C[C@@H]5O[C@@H]5OC=C[C@@]54O)[C@H]4[C@]1(CO[C@]4(O)C(=O)OC)[C@@H]32` [azadirachtin]: for the setting “alkaline solutions”, the “stability in alkaline solutions” value was “degraded in alkaline solutions”. In addition, for the setting “elevated temperatures”, the “stability at elevated temperatures” value is on record as “decomposes at elevated temperatures”. The “insect growth regulator and feeding deterrent activity” value in the data set with insect is “potent insect growth regulator and feeding deterrent”.
